Experimental findings from patent publication US12378224B2 (Dong-A Socio Holdings Co., Ltd., priority 2016, dated 2025) are described below.

What is called IC50 is the concentration that gives 50% inhibition. Lower therefore signals greater potency.

The target in the experiment is human c-MER catalytic domain (Homo sapiens (Human), UniProt Q12866). Description: TR-FRET Kinase Activity Biochemical Assay (LanthaScreen). The following applies: 10 uM ATP, 1 hour, kinase not given. The procedure, abridged:
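Recombinant human c-MER catalytic domain phosphorylated fluorescein-labeled poly-GT substrate. The reaction was stopped with 10 mM EDTA, then 2 nM Tb-labeled anti-phosphotyrosine antibody was added for 30 min. Kinase activity was taken from the 495/520 nm TR-FRET emission ratio after 340 nm excitation.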
(Time-resolved FRET reads energy transfer from a long-lived donor to a nearby acceptor.)

Sequence of human c-MER catalytic domain (Q12866 587-858): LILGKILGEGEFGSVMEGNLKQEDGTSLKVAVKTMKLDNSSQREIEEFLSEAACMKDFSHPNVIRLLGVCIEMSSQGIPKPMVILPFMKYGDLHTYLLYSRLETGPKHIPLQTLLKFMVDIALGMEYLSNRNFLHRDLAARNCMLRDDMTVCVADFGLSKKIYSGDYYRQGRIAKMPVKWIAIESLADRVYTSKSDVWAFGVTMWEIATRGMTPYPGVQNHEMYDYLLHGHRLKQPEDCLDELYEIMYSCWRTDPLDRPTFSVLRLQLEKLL

`Cn1cc(-c2cnc(N)c(C(=O)N[C@@H]3CCN(C(=O)Oc4cccc(-c5cccc(CN6CCC(N)CC6)c5)c4)C3)c2)cn1` [Example 340, 3′-((4-aminopiperidin-1-yl)methyl)-[1,1′-biphenyl]-3-yl (R)-3-(2-amino-5-(1-methyl-1H-pyrazol-4-yl)nicotinamido)pyrrolidine-1-carboxylate] yielded an IC50 of 100 to 1000 nM.

With `Cn1cc(-c2cnc(N)c(C(=O)N[C@@H]3CCN(C(=O)Oc4cccc(-c5cccc(CN6CCCNCC6)c5)c4)C3)c2)cn1` [Example 341, 3′-((1,4-diazepan-1-yl)methyl)-[1,1′-biphenyl]-3-yl (R)-3-(2-amino-5-(1-methyl-1H-pyrazol-4-yl)nicotinamido)pyrrolidine-1-carboxylate], the IC50 was 10 to 100 nM.

In turn, `Cn1cc(-c2cnc(N)c(C(=O)NC3CN(C(=O)c4ccc(-c5ccccc5)cc4)C3)c2)cn1` [Example 344, N-(1-([1,1′-biphenyl]-4-carbonyl)azetidin-3-yl)-2-amino-5-(1-methyl-1H-pyrazol-4-yl)nicotinamide] came in with an IC50 of more than 1000 nM.

Compound `Cn1cc(-c2cnc(N)c(C(=O)N[C@H]3CCN(C(=O)c4ccc(-c5ccccc5)cc4)C3)c2)cn1` [Example 346, (S)—N-(1-([1,1′-biphenyl]-4-carbonyl)pyrrolidin-3-yl)-2-amino-5-(1-methyl-1H-pyrazol-4-yl)nicotinamide] showed a half-inhibitory concentration (IC50) of more than 1000 nM.

On to `Cn1cc(-c2cnc(N)c(C(=O)N[C@@H]3CCCN(C(=O)c4ccc(-c5ccccc5)cc4)C3)c2)cn1` [Example 347, (R)—N-(1-([1,1′-biphenyl]-4-carbonyl)piperidin-3-yl)-2-amino-5-(1-methyl-1H-pyrazol-4-yl)nicotinamide], for which the concentration for half-maximal inhibition (IC50) was more than 1000 nM.

`Cn1cc(-c2cnc(N)c(C(=O)N[C@H]3CCCN(C(=O)c4ccc(-c5ccccc5)cc4)C3)c2)cn1` [Example 348, (S)—N-(1-([1,1′-biphenyl]-4-carbonyl)piperidin-3-yl)-2-amino-5-(1-methyl-1H-pyrazol-4-yl)nicotinamide] gave a concentration for half-maximal inhibition (IC50) of more than 1000 nM.

Take `Cn1cc(-c2cnc(N)c(C(=O)N[C@@H]3CCN(C(=O)c4ccc(-c5ccccc5C=O)cc4)C3)c2)cn1` [Example 355, (R)-2-amino-N-(1-(2′-formyl-[1,1′-biphenyl]-4-carbonyl)pyrrolidin-3-yl)-5-(1-methyl-1H-pyrazol-4-yl)nicotinamide]: the IC50 fell in the range of 10 to 100 nM.

The compound `Cn1cc(-c2cnc(N)c(C(=O)N[C@@H]3CCN(C(=O)c4ccc(-c5cccnc5)cc4)C3)c2)cn1` [Example 356, (R)-2-amino-5-(1-methyl-1H-pyrazol-4-yl)-N-(1-(4-(pyridin-3-yl)benzoyl)pyrrolidin-3-yl)nicotinamide] displayed an IC50 of 100 to 1000 nM.

The compound `Cn1cc(-c2cnc(N)c(C(=O)N[C@@H]3CCN(C(=O)c4ccc(-c5c(F)cccc5F)cc4)C3)c2)cn1` [Example 364, (R)-2-amino-N-(1-(2′,6′-difluoro-[1,1′-biphenyl]-4-carbonyl)pyrrolidin-3-yl)-5-(1-methyl-1H-pyrazol-4-yl)nicotinamide] registered an IC50 of 10 to 100 nM.

As for `Cn1cc(-c2cnc(N)c(C(=O)N[C@@H]3CCN(C(=O)c4ccc(-c5ccc(C(F)(F)F)cc5C(F)(F)F)cc4)C3)c2)cn1` [Example 374, (R)-2-amino-N-(1-(2′,4′-bis(trifluoromethyl)-[1,1′-biphenyl]-4-carbonyl)pyrrolidin-3-yl)-5-(1-methyl-1H-pyrazol-4-yl)nicotinamide], the IC50 is more than 1000 nM.

As to `CN(C)c1ccc(-c2ccc(C(=O)N3CC[C@@H](NC(=O)c4cc(-c5cnn(C)c5)cnc4N)C3)cc2)cc1` [Example 379, (R)-2-amino-N-(1-(4′-(dimethylamino)-[1,1′-biphenyl]-4-carbonyl)pyrrolidin-3-yl)-5-(1-methyl-1H-pyrazol-4-yl)nicotinamide], the IC50 fell in the range of 10 to 100 nM.

In turn, `Cn1cc(-c2cnc(N)c(C(=O)N[C@@H]3CCN(C(=O)c4ccc(-c5cccc(C=O)c5)cc4)C3)c2)cn1` [Example 382, (R)-2-amino-N-(1-(3′-formyl-[1,1′-biphenyl]-4-carbonyl)pyrrolidin-3-yl)-5-(1-methyl-1H-pyrazol-4-yl)nicotinamide] had an IC50 of 10 to 100 nM.

Regarding `Cn1cc(-c2cnc(N)c(C(=O)N[C@@H]3CCN(C(=O)c4ccc(-c5ccccc5)nc4)C3)c2)cn1` [Example 398, (R)-2-amino-5-(1-methyl-1H-pyrazol-4-yl)-N-(1-(6-phenylnicotinoyl)pyrrolidin-3-yl)nicotinamide], the 50% inhibitory concentration (IC50) was in the range of 100 to 1000 nM.

`Cc1csc(C(=O)N2CC[C@@H](NC(=O)c3cc(-c4cnn(C)c4)cnc3N)C2)c1` [Example 409, (R)-2-amino-5-(1-methyl-1H-pyrazol-4-yl)-N-(1-(4-methylthiophene-2-carbonyl)pyrrolidin-3-yl)nicotinamide] had an IC50 of more than 1000 nM.

As to `Cn1cc(-c2cnc(N)c(C(=O)N[C@@H]3CCN(C(=O)c4ccc(OC5C=CCCC5)cc4)C3)c2)cn1` (stereo partly drawn) [Example 411, 2-amino-N-((3R)-1-(4-(cyclohex-2-en-1-yloxy)benzoyl)pyrrolidin-3-yl)-5-(1-methyl-1H-pyrazol-4-yl)nicotinamide], the IC50 fell in the range of 100 to 1000 nM.

For the compound `Cn1cc(-c2cnc(N)c(C(=O)N[C@@H]3CCN(C(=O)c4ccc(CCBr)cc4)C3)c2)cn1` [Example 413, (R)-2-amino-N-(1-(4-(2-bromoethyl)benzoyl)pyrrolidin-3-yl)-5-(1-methyl-1H-pyrazol-4-yl)nicotinamide], the IC50 was more than 1000 nM.

With `C=Cc1ccc(C(=O)N2CC[C@@H](NC(=O)c3cc(-c4cnn(C)c4)cnc3N)C2)cc1` [Example 417, (R)-2-amino-5-(1-methyl-1H-pyrazol-4-yl)-N-(1-(4-vinylbenzoyl)pyrrolidin-3-yl)nicotinamide], the IC50 lay in the range of 100 to 1000 nM.

For `Cn1cc(-c2cnc(N)c(C(=O)N[C@@H]3CCN(C(=O)Cc4cccc(Br)c4)C3)c2)cn1` [Example 421, (R)-2-amino-N-(1-(2-(3-bromophenyl)acetyl)pyrrolidin-3-yl)-5-(1-methyl-1H-pyrazol-4-yl)nicotinamide], the IC50 was more than 1000 nM.

In turn, `Cn1cc(-c2cnc(N)c(C(=O)N[C@@H]3CCN(C(=O)Cc4cccc(-c5ccccc5)c4)C3)c2)cn1` [Example 423, (R)—N-(1-(2-([1,1′-biphenyl]-3-yl)acetyl)pyrrolidin-3-yl)-2-amino-5-(1-methyl-1H-pyrazol-4-yl)nicotinamide] yielded an IC50 of more than 1000 nM.

Compound `CN1CCN(Cc2ccc(-c3cccc(/C=C/C(=O)N4CC[C@@H](NC(=O)c5cc(-c6cnn(C)c6)cnc5N)C4)c3)cc2)CC1` [Example 431, (R,E)-2-amino-5-(1-methyl-1H-pyrazol-4-yl)-N-(1-(3-(4′-((4-methylpiperazin-1-yl)methyl)-[1,1′-biphenyl]-3-yl)acryloyl)pyrrolidin-3-yl)nicotinamide] came in with an IC50 of 100 to 1000 nM.

`CN1CCN(CCc2cccc(-c3cccc(C(=O)N4CC[C@@H](NC(=O)c5cc(-c6cnn(C)c6)cnc5N)C4)c3)c2)CC1` [Example 453, (R)-2-amino-5-(1-methyl-1H-pyrazol-4-yl)-N-(1-(3′-(2-(4-methylpiperazin-1-yl)ethyl)-[1,1′-biphenyl]-3-carbonyl)pyrrolidin-3-yl)nicotinamide] registered an IC50 of more than 1000 nM.

For the compound `Cn1cc(-c2cnc(N)c(C(=O)N[C@@H]3CCN(C(=O)c4cccc(-c5cccc(N)c5)c4)C3)c2)cn1` [Example 457, (R)-2-amino-N-(1-(3′-amino-[1,1′-biphenyl]-3-carbonyl)pyrrolidin-3-yl)-5-(1-methyl-1H-pyrazol-4-yl)nicotinamide], the 50% inhibitory concentration (IC50) was more than 1000 nM.

Compound `Cn1cc(-c2cnc(N)c(C(=O)N[C@@H]3CCN(C(=O)c4cccc(-c5ccoc5)c4)C3)c2)cn1` [Example 468, (R)-2-amino-N-(1-(3-(furan-3-yl)benzoyl)pyrrolidin-3-yl)-5-(1-methyl-1H-pyrazol-4-yl)nicotinamide] registered a half-inhibitory concentration (IC50) of more than 1000 nM.

With `Cn1cc(-c2cnc(N)c(C(=O)N[C@@H]3CCN(C(=O)c4cccc(C5=CCCCC5)c4)C3)c2)cn1` [Example 475, (R)-2-amino-5-(1-methyl-1H-pyrazol-4-yl)-N-(1-(2′,3′,4′,5′-tetrahydro-[1,1′-biphenyl]-3-carbonyl)pyrrolidin-3-yl)nicotinamide], the IC50 was more than 1000 nM.

`Cn1cc(-c2cnc(N)c(C(=O)N[C@@H]3CCN(C(=O)c4cccc(-c5cccc(N6CCCCC6)c5)c4)C3)c2)cn1` [Example 477, (R)-2-amino-5-(1-methyl-1H-pyrazol-4-yl)-N-(1-(3′-(piperidin-1-yl)-[1,1′-biphenyl]-3-carbonyl)pyrrolidin-3-yl)nicotinamide] displayed an IC50 of more than 1000 nM.

In the case of `Cn1cc(-c2cnc(N)c(C(=O)N[C@@H]3CCN(C(=O)c4cc(-c5ccccc5)ccc4N)C3)c2)cn1` [Example 486, (R)-2-amino-N-(1-(4-amino-[1,1′-biphenyl]-3-carbonyl)pyrrolidin-3-yl)-5-(1-methyl-1H-pyrazol-4-yl)nicotinamide], the IC50 was in the range of 100 to 1000 nM.

In turn, `Cn1cc(-c2cnc(N)c(C(=O)N[C@@H]3CCN(C(=O)c4ccc(-c5ccoc5)cc4)C3)c2)cn1` [Example 487, (R)-2-amino-N-(1-(4-(furan-3-yl)benzoyl)pyrrolidin-3-yl)-5-(1-methyl-1H-pyrazol-4-yl)nicotinamide] yielded an IC50 of 100 to 1000 nM.

In the case of `Cn1cc(-c2cnc(N)c(C(=O)N[C@@H]3CCN(C(=O)c4ccc(-c5ccncc5)cc4)C3)c2)cn1` [Example 489, (R)-2-amino-5-(1-methyl-1H-pyrazol-4-yl)-N-(1-(4-(pyridin-4-yl)benzoyl)pyrrolidin-3-yl)nicotinamide], the IC50 fell in the range of 100 to 1000 nM.

With `Cn1cc(-c2cnc(N)c(C(=O)N[C@@H]3CCN(C(=O)c4ccc(C5=CCCCC5)cc4)C3)c2)cn1` [Example 494, (R)-2-amino-5-(1-methyl-1H-pyrazol-4-yl)-N-(1-(2′,3′,4′,5′-tetrahydro-[1,1′-biphenyl]-4-carbonyl)pyrrolidin-3-yl)nicotinamide], the IC50 was in the range of 10 to 100 nM.

As to `Cn1cc(-c2cnc(N)c(C(=O)N[C@@H]3CCN(C(=O)c4cccc(-c5ccc6c(c5)NC(=O)C6=O)c4)C3)c2)cn1` [Example 495, (R)-2-amino-N-(1-(3-(2,3-dioxoindolin-6-yl)benzoyl)pyrrolidin-3-yl)-5-(1-methyl-1H-pyrazol-4-yl)nicotinamide], the IC50 is more than 1000 nM.
